In article PMC7614683, “A small molecule PI3Kα activator for cardioprotection and neuroregeneration” (Nature, 2023):
Where “and” joins values, the source holds several entries; their conditions need not be identical. Equal entries are not always repeated. Where two headings read alike, the source gives them in different places.

What was measured:
A549 cells = assay: pAKT S473 western blot / Wes, A549; format: cell-based, human
Method: Unless otherwise indicated, western blotting was performed with ECL detection. For time course studies, A549 cells were seeded at 250,000 cells per well in 6-well plates in RPMI (10% FBS + 1 mM Na-Pyruvate + 1% P/S) and allowed to adhere overnight. The next day they were serum-starved for 4 h prior to treatment with 100 nM insulin or 5 μM 1938, for the indicated time (5 min to 48 h) at 37°C, 5% CO2. For 1938 titration assays in MEFs, cells were seeded at 150,000 cells per well in 6-well plates and allowed to adhere overnight. The next day they were serum-starved for 4 h prior to treatment with insulin (1 μM), 1938 (0.2 to 30 μM, final DMSO concentration of 1.5%) or inhibitors (final DMSO concentration of ≤1.5%) for 15 min at 37°C, 5% CO2. Cells were washed twice with cold PBS and lysed using cold RIPA buffer (25 mM Tris.HCl pH 7.6, 150 mM NaCl, 1% NP-40, 1% sodium deoxycholate, 0.1% SDS supplemented with protease/phosphatase inhibitor cocktail from Merck). To remove cell debris, homogenates were spun at 13,000 rpm for 15 min at 4°C and the supernatant fraction recovered. Protein concentration was determined by colorimetric assay (BCA assay, Promega). Protein extracts were resolved by SDS-PAGE, transferred to nitrocellulose membranes, and incubated overnight at 4°C with specific antibodies as follows: anti-vinculin (Sigma #V9131) and the following antibodies from Cell Signaling Technology (CST): pAKT-S473 (CST #9271), pS6-S240/244 (CST #2215), pPRAS40-T246 (CST #2640) and total S6 (CST #2317). Primary ntibodies were used at 1:1000 dilution except anti-vinculin (1:10000). Secondary antibodies are also from Cell Signalling Technology: Anti rabbit IgG, HRP linked Antibody (CST #7074S), Anti mouse IgG, HRP linked Antibody (CST #7076S). Raw and uncropped blots are shown in Supplementary Fig. 1.
A549 cells were seeded at 200,000 cells per well in 24-well plates in DMEM (10% FBS + 1% P/S) and allowed to adhere overnight. The next day, cells were washed once with PBS before addition of serum-free DMEM for 24 h. […]

BRK = BRK (Homo sapiens, UniProt Q13882); assay: SelectScreen kinase profiling, BRK; format: biochemical
Sequence of BRK (Q13882 whole entry): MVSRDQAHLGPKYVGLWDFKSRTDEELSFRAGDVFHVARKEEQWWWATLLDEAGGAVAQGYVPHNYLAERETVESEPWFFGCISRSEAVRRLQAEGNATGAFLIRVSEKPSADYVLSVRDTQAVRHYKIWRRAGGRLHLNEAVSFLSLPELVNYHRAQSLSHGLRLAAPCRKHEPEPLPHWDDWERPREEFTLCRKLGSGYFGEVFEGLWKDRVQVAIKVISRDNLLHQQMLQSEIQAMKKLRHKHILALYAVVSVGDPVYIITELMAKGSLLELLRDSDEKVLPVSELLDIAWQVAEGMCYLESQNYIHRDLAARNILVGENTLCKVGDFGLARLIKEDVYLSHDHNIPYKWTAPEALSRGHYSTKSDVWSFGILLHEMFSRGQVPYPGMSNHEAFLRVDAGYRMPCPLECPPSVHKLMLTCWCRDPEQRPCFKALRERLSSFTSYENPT
Method: 133 protein kinases and 7 lipid kinases were counterscreened, with 1938 used at 1 μM, using the Adapta, Lantha and Z-LYTE assays (SelectScreen Kinase Profiling Service; Thermofisher – experimental details of these assays can be found here: https://www.thermofisher.com/uk/en/home/industrial/pharma-biopharma/drug-discovery-development/target-and-lead-identification-and-validation/kinasebiology/kinase-activity-assays.html. The tree represention in KinMap[59] generated courtesy of Cell Signaling Technology, Inc. (www.cellsignal.com). mTORC1 (mTOR/RAPTOR/LST8) protein complex and ATM kinase and substrates were produced as previously described[57],[60]. Screening of 1938 was conducted using SuperSep Phos-Tag 50 μmol/l 100 x 100 x 6.6 mm 17-well (192-18001/199-18011) gels. For ATM assays, 100 nM ATM was incubated for 30 min at 30°C with 5 μM GST-p53 and 1 mM ATP, in the absence or presence of 200 μM 1938 in ATM Kinase Buffer (50 mM HEPES pH 7.5, 100 mM NaCl, 10% glycerol, 2 mM […], 5 mM MgCl2). As a positive control for ATM activation, the same reaction was carried out with 100 nM ATM/5 μM GST-p53/1 mM ATP in the presence of 100 nM Mre11-Rad50-Nbs1 (MRN) complex, a known activator of ATM[61]. For mTORC1 assays, 50 nM mTORC1 complex (mTOR/LST8/RAPTOR) was incubated for 3 h at 30°C with 15 μM 4E-BP1, 10 mM MgCl2 and 250 μM ATP, in the absence or presence of 200 μM 1938. As a ‘positive’ control, a higher concentration (150 nM) of mTORC1 complex (mTOR/LST8/RAPTOR) was incubated for 3 h at 30°C with 15 μM 4E-BP1, 10 mM MgCl2 and 250 μM ATP. Kinase reactions were quenched by addition of SDS-PAGE Loading Buffer (as per manufacturer’s instructions) and freezing at -20°C before being run on the Phos-tag gels at 150 V for 90 min. Gels were then stained using InstantBlue™ Coomassie, and quantified using BioRad Image Lab Software. Kinase assays were carried out in triplicate.

mouse heart = assay: In vivo model of ischaemia reperfusion injury in mice; settings: 10 mg/kg 1938 i.v., heart after 15 min; single mice

CCN1CCN(c2ccc(Nc3cc(Nc4cccc5c4N(C(C)=O)CC5)ccn3)cc2)CC1 [Compound 1938]
time of peak pAKT^S473 activation (A549 cells; 1938 5 μM, A549 and MCF10A): 30 min | time to induction of pAKT^S473 (A549 cells; 1938 5 μM, A549 and MCF10A): 5 min | pAKT^S473 increase (A549 cells; A549): BYL719-sensitive increase in pAKT^S473 | inhibition at 1 µM (BRK; read-out: % Inhibition Point 1): 55% | inhibition at 1 µM (BRK; read-out: % Inhibition Point 2): 56% | inhibition at 1 µM (BRK; read-out: % Inhibition mean): 56% | Western blot pAkt in vivo: pAkt/tAkt (mouse heart): 7.58 and 5.35 and 5.18
